Laboratory results as given in patent US7094752B2 (Chiron Corporation, priority 1997, dated 2006).
Read-outs that look alike come from different tables or passages of the source. Marks after values point to notes of the source that are not given here. Square brackets hold non-standard residues; d marks the D form. Peptide text beside a SMILES is read from it. Nle = CCCC[C@H](N)C(=O)O; Abu = CC[C@H](N)C(=O)O

Key:
soluble uPAR [1] = biological target: T1, soluble uPAR (Homo sapiens, UniProt Q03405); assay type: binding; set-up: sUPAR, soluble truncated form of the urokinase receptor; made in house; host or cells: baculovirus-infected Sf9 insect cells; details: for % Inhibition 2.5 uM: 2500.0; for % Inhibition 5 uM: 5000.0
T1 sequence (Q03405 23-305 limits assumed): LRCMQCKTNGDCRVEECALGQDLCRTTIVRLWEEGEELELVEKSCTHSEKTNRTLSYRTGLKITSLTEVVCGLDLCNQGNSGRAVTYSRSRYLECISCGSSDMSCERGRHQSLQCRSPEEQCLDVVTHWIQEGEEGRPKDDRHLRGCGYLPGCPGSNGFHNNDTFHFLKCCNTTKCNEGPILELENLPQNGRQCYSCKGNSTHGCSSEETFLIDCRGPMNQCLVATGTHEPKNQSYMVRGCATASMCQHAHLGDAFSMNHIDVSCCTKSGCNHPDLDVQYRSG
Protocol: Streptavidin, 100 μl (0.1 mg/ml) in 50 mM Na2CO3, pH 9.6, was added to MaxiSorp wells (Nunc), incubated overnight at 4 C, and then washed with PBS/BSA. Biotinylated sUPAR (25 nM in PBS/BSA) was added to the wells and incubated for 2 hours at room temperature prior to washing. Competitive peptide inhibitors were added to the wells immediately prior to addition of the bacteriophage. The wells were incubated for one hour at room temperature, then washed and bound bacteriophage eluted with 6M urea in 0.1N HCl, pH 2.5. After 15 minutes, the urea eluate was brought to neutral pH by addition of 2M Tris base and the bacteriophage titers of input stocks and elutions measured by plaque formation assay. Results were expressed as the percent of input bacteriophage which bind to the wells. Alternatively, the amount of bacteriophage was determined in an ELISA where phage were preincubated with HRP-conjugated anti-M13 antibody for 30 minutes at room temperature before dispensing into wells prepared as above and incubated for one hour at room temperature. The final anti-M13 conjugate dilution was 1:4000. After washing, TMB substrate (100 μl/well) was added and color development was stopped with 0.8N H2SO4 (100 μl/well). The absorbance at 450 nm was then measured in a 96 well plate reader.
In a uPAR binding assay, the following analogs were tested in a competition with phage displaying either peptide 25 or peptide 9. The analogs comprise both natural and unnatural amino acids.
The analogs were tested in an assay utilizing soluble uPAR, similar to the method described in Example 2. The analogs were tested for their ability to compete with phage displaying either peptide 9 or peptide 25. Analogs 3–61 were tested in competition with peptide 25. Analogs 62–96 were tested in competition with peptide 9. Approximately 10^8 plaque forming units of the phage were used in the assay.
The analogs were tested at a concentration at 40 μM in the uPAR competition assay with phage displaying peptide 25. The results below show which analogs were active.
Analogs 31–61 were tested for their ability to compete with phage displaying peptide 25. The active analogs were tested further at two concentrations, 5 μM and 2.5 μM. These concentrations were calculated based on the synthesis reactions. However, the sequences * were further tested and determined to contain high amounts of amino acids and the quantity tested could have been higher than 5 μM or 2.5 μM.

sUPAR domain 2–3 (D23) = biological target: T2, sUPAR domain 2–3 (D23) (Homo sapiens, UniProt Q03405); assay: Bacteriophage binding to sUPAR domain 2/3; details: phage-displayed peptide
T2 construct: domains 2 and 3 (amino acids 93–313); made in house; host or cells: baculovirus infected Sf9 insect cells
T2 sequence (Q03405 115-335): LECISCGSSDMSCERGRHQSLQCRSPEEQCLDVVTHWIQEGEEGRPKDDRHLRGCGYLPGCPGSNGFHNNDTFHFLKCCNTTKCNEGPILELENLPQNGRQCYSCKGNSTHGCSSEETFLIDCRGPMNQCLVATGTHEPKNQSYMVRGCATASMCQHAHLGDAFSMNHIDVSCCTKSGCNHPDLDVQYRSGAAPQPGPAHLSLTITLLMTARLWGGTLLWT
Protocol: FIG. 5. Bacteriophage binding to sUPAR domain 2/3. Phage were added to wells containing sUPAR domain 2/3 immobilized by its epitope tag via protein G and monoclonal antibody to the epitope tag. Wells containing protein G and antibody but no domain 2/3 were included to determine nonspecific phage binding. Urea-eluted phage and the input stocks were titered by plaque formation assay. Results were single point determinations calculated as a percent of the input titer and were repeated in three separate experiments.
It was also shown by the inventors that bacteriophage bound to sUPAR domain 2–3fragment. Protein G, 100μl, 1 mg/ml in 50 mM Na2CO3, pH9.6, was added to MaxiSorp wells, incubated overnight at 4° C. and then washed with PBS/BSA. Fifty μl of monoclonal antibody to the epitope tag EYMPME (SEQ ID NO: 18) was added at 1 mg/ml in PBS/BSA and incubated for 2 hours at room temperature. The wells were washed, recombinant sUPAR domain 2–3 (1.7 μM in PBS/BSA) was added and incubated for 1.5 hours at room temperature. The wells were washed prior to the addition of bacteriophage (approximately 10^8 pfu), and then treated as described in the previous section for binding to suPAR.

soluble uPAR [2] = biological target: T1, soluble uPAR
Protocol: The analogs were tested for their ability to compete with phage displaying either peptide 9 or peptide 25. […] Approximately 10^8 plaque forming units of the phage were used in the assay.

[3] = biological target: T3, uPA1–48:uPAR complexes binding to vitronectin (Homo sapiens, UniProt Q03405); assay: Vitronectin binding assay (ELISA); details: 20 nM biotinylated suPAR, 20 nM uPA1–48
T3 construct: sUPAR, soluble truncated form of the urokinase receptor; made in house; host or cells: suPAR: baculovirus-infected Sf9 cells; uPA1-48: recombinant yeast; vitronectin: purified from human plasma
T3 sequence (Q03405 23-305 limits assumed, one chain of several): as the sequence (Q03405 23-305 limits assumed) above
Protocol: Vitronectin was purified from human plasma by the method of Yatohgo et al, Cello Struct.and Funct. 13: 281–292 (1988). Purified vitronectin was diluted to 20 μg/ml in PBS containing 1 mM CaCl2 and 0.5 mM MgCl2, dispensed at 50 μl/well into Immulon II wells (Dynatech, Chantilly, Va.), incubated overnight at 4° C. and washed with PBS/BSA. Biotinylated sUPAR was diluted to 20 nM in PBS/BSA, incubated with or without test ligand for 30 minutes at room temperature (22° C.), dispensed at 100 μl/well and incubated for 90 minutes. Wells were then washed and horseradish peroxidase (HRP)-conjugated streptavidin was added at 0.4 μg/ml in PBS/2% BSA for 1 hour followed by washing and addition of 100 μl/well TMB substrate. The color development was stopped with 100 μl of 0.8N H2SO4 and the absorbance at 450 nm measured in a 96 well plate reader (Dynatech, Chantilly, Va.). Antagonistic effects of test ligands were measured as described above except the ligands were incubated with 20 nM biotinylated suPAR in the presence of 20 nM uPA1–48.
In order to analyze the effects of the various peptide ligands on the uPAR:vitronectin interaction, we developed an in vitro ELISA based assay for this interaction, in which biotinylated suPAR and uPA1–48 bind to immobilized, urea purified vitronectin, and the bound sUPAR is detected with HRP conjugated streptavidin. Under the conditions of the assay binding of biotinylated uPAR to vitronectin is strictly dependent on uPA1–48, as shown in FIG. 1.

Compound | % Inhibition 2.5 uM (soluble uPAR [1]) | % Inhibition 5 uM (soluble uPAR [1]) [%] | other results
CCCC[C@H](NC(=O)[C@H](Cc1ccc(O)cc1)NC(=O)CNC(=O)[C@H](CC(C)C)NC(=O)[C@H](CO)NC(=O)[C@H](CC(C)C)NC(=O)[C@H](Cc1c[nH]cn1)NC(=O)[C@H](Cc1c[nH]cn1)NC(=O)[C@H](Cc1ccc(O)cc1)NC(=O)[C@@H](NC(=O)[C@H](CO)NC(=O)[C@H](CCC(=O)O)NC(=O)[C@H](C)N)[C@@H](C)O)C(=O)N[C@@H](Cc1ccc(O)cc1)C(=O)N[C@H](C(=O)N[C@@H](CC(C)C)C(=O)N[C@@H](CC(N)=O)C(N)=O)[C@@H](C)O [Analog 44, AESTYHHLSLGYJYTLN] (H-AESTYHHLSLGY[Nle]YTLN-NH2) | 84* % | 91 | 
CC[C@H](NC(=O)[C@H](Cc1ccc(O)cc1)NC(=O)CNC(=O)[C@H](CC(C)C)NC(=O)[C@H](CO)NC(=O)[C@H](CC(C)C)NC(=O)[C@H](Cc1c[nH]cn1)NC(=O)[C@H](Cc1c[nH]cn1)NC(=O)[C@H](Cc1ccc(O)cc1)NC(=O)[C@@H](NC(=O)[C@H](CO)NC(=O)[C@H](CCC(=O)O)NC(=O)[C@H](C)N)[C@@H](C)O)C(=O)N[C@@H](Cc1ccc(O)cc1)C(=O)N[C@H](C(=O)N[C@@H](CC(C)C)C(=O)N[C@@H](CC(N)=O)C(N)=O)[C@@H](C)O [Analog 45] (H-AESTYHHLSLGY[Abu]YTLN-NH2) | 31% | 59 | 
CSCC[C@H](NC(=O)[C@H](Cc1ccc(O)cc1)NC(=O)CNC(=O)[C@H](CC(C)C)NC(=O)[C@H](CO)NC(=O)[C@H](CC(C)C)NC(=O)[C@H](Cc1c[nH]cn1)NC(=O)[C@H](Cc1c[nH]cn1)NC(=O)[C@H](Cc1ccc(O)cc1)NC(=O)[C@@H](NC(=O)[C@H](CO)NC(=O)[C@H](CCC(=O)O)NC(=O)[C@@H](C)N)[C@@H](C)O)C(=O)N[C@@H](Cc1ccc(O)cc1)C(=O)N[C@H](C(=O)N[C@@H](CC(C)C)C(=O)N[C@@H](CC(N)=O)C(N)=O)[C@@H](C)O [Analog 46] (H-[dA]ESTYHHLSLGYMYTLN-NH2) | 41% | 57 | 
CSCC[C@H](NC(=O)[C@H](Cc1ccc(O)cc1)NC(=O)CNC(=O)[C@H](CC(C)C)NC(=O)[C@H](CO)NC(=O)[C@H](CC(C)C)NC(=O)[C@H](Cc1c[nH]cn1)NC(=O)[C@H](Cc1c[nH]cn1)NC(=O)[C@H](Cc1ccc(O)cc1)NC(=O)[C@@H](NC(=O)[C@H](CO)NC(=O)[C@@H](CCC(=O)O)NC(=O)[C@H](C)N)[C@@H](C)O)C(=O)N[C@@H](Cc1ccc(O)cc1)C(=O)N[C@H](C(=O)N[C@@H](CC(C)C)C(=O)N[C@@H](CC(N)=O)C(N)=O)[C@@H](C)O [Analog 47] (H-A[dE]STYHHLSLGYMYTLN-NH2) | 35% | 61 | 
CSCC[C@H](NC(=O)[C@H](Cc1ccc(O)cc1)NC(=O)CNC(=O)[C@H](CC(C)C)NC(=O)[C@@H](CO)NC(=O)[C@H](CC(C)C)NC(=O)[C@H](Cc1c[nH]cn1)NC(=O)[C@H](Cc1c[nH]cn1)NC(=O)[C@H](Cc1ccc(O)cc1)NC(=O)[C@@H](NC(=O)[C@H](CO)NC(=O)[C@H](CCC(=O)O)NC(=O)[C@H](C)N)[C@@H](C)O)C(=O)N[C@@H](Cc1ccc(O)cc1)C(=O)N[C@H](C(=O)N[C@@H](CC(C)C)C(=O)N[C@@H](CC(N)=O)C(N)=O)[C@@H](C)O [Analog 54] (H-AESTYHHL[dS]LGYMYTLN-NH2) | 73% | 86 | 
CSCC[C@H](NC(=O)[C@H](Cc1ccc(O)cc1)NC(=O)CNC(=O)[C@@H](CC(C)C)NC(=O)[C@H](CO)NC(=O)[C@H](CC(C)C)NC(=O)[C@H](Cc1c[nH]cn1)NC(=O)[C@H](Cc1c[nH]cn1)NC(=O)[C@H](Cc1ccc(O)cc1)NC(=O)[C@@H](NC(=O)[C@H](CO)NC(=O)[C@H](CCC(=O)O)NC(=O)[C@H](C)N)[C@@H](C)O)C(=O)N[C@@H](Cc1ccc(O)cc1)C(=O)N[C@H](C(=O)N[C@@H](CC(C)C)C(=O)N[C@@H](CC(N)=O)C(N)=O)[C@@H](C)O [Analog 55] (H-AESTYHHLS[dL]GYMYTLN-NH2) | 56% | 80 | 
CSCC[C@H](NC(=O)[C@H](Cc1ccc(O)cc1)NC(=O)CNC(=O)[C@H](CC(C)C)NC(=O)[C@H](CO)NC(=O)[C@H](CC(C)C)NC(=O)[C@H](Cc1c[nH]cn1)NC(=O)[C@H](Cc1c[nH]cn1)NC(=O)[C@H](Cc1ccc(O)cc1)NC(=O)[C@@H](NC(=O)[C@H](CO)NC(=O)[C@H](CCC(=O)O)NC(=O)[C@H](C)N)[C@@H](C)O)C(=O)N[C@@H](Cc1ccc(O)cc1)C(=O)N[C@H](C(=O)N[C@H](CC(C)C)C(=O)N[C@@H](CC(N)=O)C(N)=O)[C@@H](C)O [Analog 60] (H-AESTYHHLSLGYMYT[dL]N-NH2) | 22% | 75 | 
CSCC[C@H](NC(=O)[C@H](Cc1ccc(O)cc1)NC(=O)CNC(=O)[C@H](CC(C)C)NC(=O)[C@H](CO)NC(=O)[C@H](CC(C)C)NC(=O)[C@H](Cc1c[nH]cn1)NC(=O)[C@H](Cc1c[nH]cn1)NC(=O)[C@H](Cc1ccc(O)cc1)NC(=O)[C@@H](NC(=O)[C@H](CO)NC(=O)[C@H](CCC(=O)O)NC(=O)[C@H](C)N)[C@@H](C)O)C(=O)N[C@@H](Cc1ccc(O)cc1)C(=O)N[C@H](C(=O)N[C@@H](CC(C)C)C(=O)N[C@H](CC(N)=O)C(N)=O)[C@@H](C)O [Analog 61] (H-AESTYHHLSLGYMYTL[dN]-NH2) | 32% | 55 | 
H-AEFFKLGPNGYVYLHSA-NH2 [peptide 9] |  |  | bacteriophage binding to immobilized D23 versus sUPAR (sUPAR domain 2–3 (D23)): bind equivalently to the D23 fragment and full-length receptor; % Inhibition 2.5 uM (soluble uPAR [2]; 2500.0): 59%; % Inhibition 5 uM (soluble uPAR [2]; 5000.0): 71%
H-AESTFHHLSLGYMYTLN-NH2 [Analog 34] | 38% | 47 | 
H-AESTYHHLSLGYVYTLN-NH2 [Analog 43] | 63% | 82 | 
somatomedin B domain of vitronectin: recombinant somatomedin B domain of vitronectin (DQESCKGRCTEGFNVDKKCQCDELCSYYQSCCTDYTAECKPQVT) |  |  | effect on binding of uPA1–48:uPAR complexes to vitronectin [3]: blocked
